Test results published in patent US9732084B2, “Pyrrolobenzodiazepines used to treat proliferative diseases” (priority 2010, dated 2017).

Experiments:
Assay type in all cases: cell-based
786-O [1] = experiment: Free drug in vitro cytotoxicity (resazurin); conditions: Homo sapiens, 786-0, 786-O cells, 96 hours
Experimental: (§1) Cells as detailed below were collected and plated in 96 well black-sided plates at a density of 10,000 cells/well in 150 μL of medium. Serial dilutions of the test article (50 μL) were added, and incubation was carried out for 92 hours at 37° C. After addition of test compound, cultures were incubated to 96 hours at 37° C. Resazurin (0.25 mM, 50 μL, Sigma, St. Louis, Mo.) in medium was added and incubation was continued for 4 h. The plates were read on a Fusion HT microplate reader (Packard, Meriden, Conn.) using an excitation wavelength of 525 nm and an emission wavelength of 590 nm. Data from all assays were reduced using GraphPad Prism Version 4 for Windows (GraphPad Software, San Diego, Calif.). The IC50 concentrations compared to untreated control cells were determined using a 4 parameter curve fits.

Caki-1 [2] = experiment: Free drug in vitro cytotoxicity (resazurin); conditions: Homo sapiens, Caki-1 cells, 96 hours
Experimental: as §1

MCF-7 [3] = experiment: Free drug in vitro cytotoxicity (resazurin); conditions: Homo sapiens, MCF7, MCF-7 cells, 96 hours
Experimental: as §1

TF1a = experiment: Free drug in vitro cytotoxicity (resazurin); conditions: TF-1a, TF1a cells, 96 hours
Experimental: as §1

786-O [4] = experiment: Alternative cell assay (Cell Titer Glo cytotoxicity); conditions: Homo sapiens, 786-0, 786-O cells, 48 hours
Experimental: (§2) Cells were plated in 150 μL growth media per well into black-sided clear-bottom 96-well plates (Costar, Corning) and allowed to settle for 1 hour in the biological cabinet before placing in the incubator at 37° C., 5% CO2. The following day, 4× concentration of drug stocks were prepared, and then titrated as 10-fold serial dilutions producing 8-point dose curves and added at 50 μl per well in duplicate. Cells were then incubated for 48 hours at 37° C., 5% CO2. Cytotoxicity was measure by incubating with 100 μL Cell Titer Glo (Promega) solution for 1 hour, and then luminescence was measured on a Fusion HT plate reader (Perkin Elmer). Data was processed with Excel (Microsoft) and GraphPad (Prism) to produce dose response curves and IC50 values were generated and data collected.

BxPC-3 = experiment: as above; conditions: Homo sapiens, BxPC-3 cells, 48 hours
Experimental: as §2

Caki-1 [5] = experiment: as above; conditions: Homo sapiens, Caki-1 cells, 48 hours
Experimental: as §2

HEL = experiment: as above; conditions: Homo sapiens, HEL cells, 48 hours
Experimental: as §2

HL-60 = experiment: as above; conditions: Homo sapiens, HL-60 cells, 48 hours
Experimental: as §2

MCF-7 [6] = experiment: as above; conditions: Homo sapiens, MCF7, MCF-7 cells, 48 hours
Experimental: as §2

Compound	IC50 (786-O [1]) [nM]	IC50 (Caki-1 [2]) [nM]	IC50 (MCF-7 [3]) [nM]	IC50 (TF1a) [nM]	IC50 (786-O [4]) [nM]	IC50 (BxPC-3) [nM]	IC50 (Caki-1 [5]) [nM]	IC50 (HEL) [nM]	IC50 (HL-60) [nM]	IC50 (MCF-7 [6]) [nM]
COc1cc2c(cc1OCCCOc1cc3c(cc1OC)C(=O)N1C=C(c4cccc(N)c4)C[C@H]1C=N3)N=C[C@@H]1CC(C)=CN1C2=O [Compound 18, (S)-2-(3-aminophenyl)-7-methoxy-8-(3-((S)-7-methoxy-2-methyl-5-oxo-5,11a-dihydro-1H-pyrrolo[2,1-c][1,4]benzodiazepine-8-yloxy)propoxy)-1H-pyrrolo[2,1-c][1,4]benzodiazepine-5(11aH)-one]	1	0.6	2	0.7	–	–	–	–	–	–
COc1cc2c(cc1OCCCOc1cc3c(cc1OC)C(=O)N1C=C(c4ccc(N)cc4)C[C@H]1C=N3)N=C[C@@H]1CC(C)=CN1C2=O [Compound 11, (S)-2-(4-aminophenyl)-7-methoxy-8-(3-((S)-7-methoxy-2-methyl-5-oxo-5,11a-dihydro-1H-pyrrolo[2,1-c][1,4]benzodiazepine-8-yloxy)propoxy)-1H-pyrrolo[2,1-c][1,4]benzodiazepine-5(11aH)-one]	0.1	0.06	0.2	0.07	0.85	3	0.4	0.06	0.1	7
CC=CC1=CN2C(=O)c3cc(OC)c(OCCCCCOc4cc5c(cc4OC)C(=O)N4C=C(c6cccc(N)c6)C[C@H]4C=N5)cc3N=C[C@@H]2C1 [Compound 15, (S)-2-(3-aminophenyl)-8-(5-((S)-2-propenyl-7-methoxy-5-oxo-5,11a-dihydro-1H-pyrrolo[2,1-c][1,4]benzodiazepine-8-yloxy)pentyloxy)-7-methoxy-1H-pyrrolo[2,1-c][1,4]benzodiazepine-5(11aH)-one]	–	–	0.03	–	–	–	–	–	–	–
